Results on one compound are retold here after patent US20210093625A1, “COMBINATION THERAPY” (Celleron Therapeutics Limited, priority 2019, published 2021).

In series [1] the target is HDAC1 (Homo sapiens, UniProt Q13547). The series is described as follows: HDAC1 inhibition. It is filed as biochemical.
The target of series [2] is HDAC2 (Homo sapiens, UniProt Q92769). The experiment in a line: HDAC2 inhibition. It is filed as biochemical.
Series [3] has as its target HDAC3 (Homo sapiens, UniProt O15379). The experiment in a line: HDAC3 inhibition. It is filed as biochemical.
For series [4], the system named is SW620 cells. The series is described as follows: RNA-seq of SW620 cells. It is filed as cell-based, human. As to the method:
We performed RNA-seq on polyA-enriched RNA to assess the effect of CXD101 on the global transcript profile in SW620 cells compared to the vehicle-alone (DMSO) treatment (18). The FASTQ data were aligned to the reference human genome (hg19) with STAR aligner and analysed for differential expression using Bioconductor and DESeq2 R suite (19). The sequencing data were of high quality with on average 92% of the reads able to be mapped to the genome (FIG. 1b).
(§1) SW620 cells were seeded into 6-well plates and left to adhere overnight. Cells were treated with 1 μM, 10 μM of CXD101 for 48 h. CT26 cells were seeded onto 100 mm plates and treated with 2.7 μM and 10 μM CXD101 for 72 h. After treatment cells were harvested and total RNA extracted by means of Promega ReliaPrepμ RNA Cell Miniprep System (Promega, USA). RNA was dissolved in RNAse free water and stored in −80° C. for future analysis. RNA concentration was measured by NanoDrop 2000 (Thermo Fisher Scientific, USA). Samples were qualified for library preparation if […]. Library preparation with poly (A) enrichment was performed by BGI.
(§2) FASTQ files for CXD101 and DMSO treated samples in three biological replicates were trimmed to remove adapters and low-quality bases with TrimGalore v.0.4.3(http://www.bioinformatics.babraham.ac.uk/projects/trim_galore/). The trimmed reads were aligned to the human reference genome (build hg19) with STAR aligner v.2.7 with two mismatches allowed. Differential gene expression analysis was done with the Bioconductor framework (v.3.8) and DESeq2 R package v.1.22, using read count data provided by the aligner. Genes were considered differentially expressed if the adjusted P, calculated using the Benjamini-Hochberg method in order to minimise the false discovery rate, was less than 0.01 (1%) and the change in expression level was greater than ˜2-fold as compared to DMSO control (e.g. |log_2(expression fold change) |>1).

The test system of series [5] is SW620 cells. The series is described as follows: qPCR of single genes in SW620 cells. Type of series: cell-based, human. Particulars: control gene, FIG. 3. As to the method: Total RNA purified from DMSO- or CXD101treated cells was transcribed into cDNA according to the manufacturer's instructions (iScript cDNA Synthesis Kit, Bio-Rad, USA). qPCR was conducted according to the manufacturer's protocol (SsoAdvanced Universal SYBR Green Supermix, Bio-Rad Laboratories, USA) on CFX Connect Real-Time System thermocycler (Bio-Rad Laboratories, USA).
(In qPCR the cycle at which signal appears reflects the starting amount.)

The test system of series [6] is colon26 cells. The series is described as follows: RNAseq of colon26 cells in vitro. As to conditions: for differentially expressed genes that are immune-related: out of 1142 DEGs. It is filed as cell-based, mouse.
Description: The RNAseq data was aligned to the reference M.musculus genome (mm10) with STAR aligner and analysed for differential expression. […] Out of 1142 differentially expressed genes identified following CXD101 treatment, 36% (416) were immune-related when analysed using the immunogenicity database (ref), and 34% (388) and 15% (176) when analysed with Import and Immunome databases (ref). We further evaluated transcripts identified in the colon26 RNAseq at the single gene level, focussing on murine genes which are homologues of the immune-related genes identified in human SW620 cells, which included genes in the murine MHC H2 complex. A number of H2 genes including class I and class II genes were induced including H2-D1, DMA, DMB1 and EB1 (FIG. 6).
as §1, §2

Series [7] deals with colon26 tumours. The experiment in a line: RNAseq of colon26 tumours. Type of series: in vivo, Balb/c mice. As to conditions: log2FC >1 and FDR <1%. As to the method: To assess gene expression in tumours that were growing in vivo, we evaluated the effect of CXD101 in the syngeneic colon26 colon carcinoma model in tumours grown subcutaneously in Balb/c mice, with CXD101 given orally for two 5-day consecutive periods and performed RNAseq on RNA purified from the tumours. Formalin-fixed paraffin-embedded samples were also prepared to assess by immunohistochemistry (IHC) the tumour micro-environment.
The effect was dose-dependent, as more tumour-inhibition occurred with a higher dose of CXD101 (50 mg/kg compared to 15 mg/kg). […] We performed RNA seq on polyA-enriched RNA prepared from the tumours. In a similar way to the analysis of colon26 in vitro, the RNAseq data was aligned to the reference M.musculus genome (mm10) with STAR aligner and analysed for differential expression.

Series [8] can be described thus: physchem. Particulars: 25 °C, aqueous buffer.
For series [9] the following is noted: human patients, cited from earlier work.
Where [10] appears, read: colon26 cells in vitro, log2 FC >1 and FDR <1%.

As a reminder, the IC50 is the concentration needed to halve the response being measured. A low value points to greater potency. Usually solubility stands for the dissolved amount per volume that the medium holds. Low values mean a poorly soluble substance, high ones a readily soluble substance.

Sequence of HDAC1 (Q13547 whole entry, species assumed): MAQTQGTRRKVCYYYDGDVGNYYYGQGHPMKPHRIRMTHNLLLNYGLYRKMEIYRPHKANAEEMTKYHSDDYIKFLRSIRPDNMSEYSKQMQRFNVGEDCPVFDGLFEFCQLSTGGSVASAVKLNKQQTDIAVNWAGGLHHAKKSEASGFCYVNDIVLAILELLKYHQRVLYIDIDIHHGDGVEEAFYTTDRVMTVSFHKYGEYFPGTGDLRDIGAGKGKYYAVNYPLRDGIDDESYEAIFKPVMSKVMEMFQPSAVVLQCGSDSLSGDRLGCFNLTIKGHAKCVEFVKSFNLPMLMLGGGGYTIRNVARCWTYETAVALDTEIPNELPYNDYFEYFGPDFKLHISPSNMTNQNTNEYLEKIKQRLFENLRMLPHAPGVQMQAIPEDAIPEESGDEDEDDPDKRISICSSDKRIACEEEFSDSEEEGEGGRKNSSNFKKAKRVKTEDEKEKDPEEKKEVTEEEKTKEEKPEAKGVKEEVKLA
Sequence of HDAC3 (O15379 whole entry, species assumed): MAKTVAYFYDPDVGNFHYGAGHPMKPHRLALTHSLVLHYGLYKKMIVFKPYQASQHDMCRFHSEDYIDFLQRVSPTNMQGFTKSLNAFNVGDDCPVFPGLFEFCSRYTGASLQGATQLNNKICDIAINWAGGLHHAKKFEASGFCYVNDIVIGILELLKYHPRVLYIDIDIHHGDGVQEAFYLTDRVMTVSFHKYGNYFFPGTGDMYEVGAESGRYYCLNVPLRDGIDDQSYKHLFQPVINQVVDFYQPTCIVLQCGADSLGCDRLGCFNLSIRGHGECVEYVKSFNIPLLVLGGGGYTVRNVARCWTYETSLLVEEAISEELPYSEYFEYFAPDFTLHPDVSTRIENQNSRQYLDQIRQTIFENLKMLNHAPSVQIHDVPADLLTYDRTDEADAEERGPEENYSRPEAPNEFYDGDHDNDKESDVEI
Sequence of HDAC3 (Q9Y618 395-489 partner limits assumed, species assumed): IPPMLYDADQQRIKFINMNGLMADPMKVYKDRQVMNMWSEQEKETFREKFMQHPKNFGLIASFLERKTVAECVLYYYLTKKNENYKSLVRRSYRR
Sequence of HDAC2 (Q92769 whole entry, species assumed): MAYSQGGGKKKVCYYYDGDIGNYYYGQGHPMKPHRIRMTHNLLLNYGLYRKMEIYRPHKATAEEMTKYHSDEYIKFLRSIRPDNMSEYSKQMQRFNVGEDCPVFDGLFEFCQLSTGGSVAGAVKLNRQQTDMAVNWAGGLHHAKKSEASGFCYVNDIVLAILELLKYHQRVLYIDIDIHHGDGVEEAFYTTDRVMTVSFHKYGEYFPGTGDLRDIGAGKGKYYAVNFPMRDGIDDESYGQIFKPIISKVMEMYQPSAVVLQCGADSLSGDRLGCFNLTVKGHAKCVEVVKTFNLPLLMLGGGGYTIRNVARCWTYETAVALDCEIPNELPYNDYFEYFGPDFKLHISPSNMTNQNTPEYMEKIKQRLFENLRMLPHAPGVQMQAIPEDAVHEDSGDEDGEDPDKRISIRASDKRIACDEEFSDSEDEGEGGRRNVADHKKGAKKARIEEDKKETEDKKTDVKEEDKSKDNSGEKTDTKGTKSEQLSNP

Turning to `Cc1nn(C)cc1CN1CCC(c2ccc(C(=O)Nc3ccccc3N)cc2)CC1` [CXD101, N-(2-aminophenyl)-4-(1-[(1,3-dimethyl-1H-pyrazol-4-yl)methyl]piperidin-4yl)benzamide], the IC50 was found to be 0.063 µM in [1], 0.57 µM in series [2] and 0.55 µM in series [3]. Further, the “proportion of DEGs down-regulated” value in series [4] (SW620) worked out at 30%. Also, the “proportion of DEGs up-regulated” value in series [4] (SW620) is reported as 70%. The “number of differentially expressed transcripts (DEGs)” value in series [4] (SW620, log2 FC >1 and FDR <1%, vs DMSO) was “about 2500”. The “expression of REPIN1” value in series [5] was “no effect”. The genes down-regulated in series [6] (setting [10]) stood at 611. The compound also displayed a genes up-regulated in [6] (setting [10]) of 1891. Further, the “size of DEG set in vitro” value in series [6] (colon26 cells, log2FC >1 and FDR <1%) came to 2502. For the same compound, the “differentially expressed genes that are immune-related” value amounted to 15% in [6] (Immunome database), 34% in series [6] (Import database) and 36% in [6] (immunogenicity database). For the same compound, the “size of DEG set in vivo” value in series [7] is reported as 1141. The solubility in series [8] is at least 500 µg/mL. Also, the MTD in series [9] (for 5 days in a 3-weekly cycle) is 20 mg B.D. In addition, the safety profile entry in series [9] is “favourable safety profile”.
